# Experimental data as given in patent US20080221214A1, “Process for the preparation of "Urchym" a urease and alpha-chymotrypsin enzyme inhibitory drug” (priority 2006, published 2008).
# Tests used:
# Jack bean urease = biological target: T1, Jack bean urease (Canavalia ensiformis, UniProt P07374); assay: biochemical
# T1 construct: purchased Sigma-Aldrich
# Method: Reaction mixtures comprising a 25 μL solution of enzyme (Jack bean urease, Sigma-Aldrich, specific activity 15 EU/mg) and 55 μL of buffer (0.01 M K2HPO43H2O, 1 MM EDTA 0.01 M LiCl; pH 8.2) containing 100 mM urea were incubated with 5 μL of the test compounds (0.01 μM-1 mM, dissolved in DMSO) at 30° C. for 15 min in 96-well plates. Urease activity was determined by measuring ammonia production using the indophenol method, 45 μL, of phenol reagent (1% w/v phenol and 0.005% w/v sodium nitroprusside) and 70 μL of alkali reagent (0.5% w/v NaOH and 0.1% w/v NaOCI) were added to each well (the final reaction volume was 200 μL). The increasing absorbance at 630 nm was measured after 50 min using a microplate reader (Molecular Device). All reactions were performed in triplicate. The results (change in absorbance per min) were processed using SoftMax Pro software (Molecular Device). Percent inhibitions were calculated using the formula 100−(ODtest well/ODcontrol×100).
# α-chymotrypsin = biological target: T2, α-chymotrypsin (Bos taurus, UniProt P00766); assay: α-Chymotrypsin assay and inhibition; assay type: biochemical; settings: substrate N-succinyl-phenylalanine-p-nitroanilide, pH 7.6, 37° C., 30 min pre-incubation; read-out: IC50 value, α-chymotrypsin inhibitory activity
# T2 construct: purchased Sigma-Aldrich
# Method: For the determination of α-chymotrypsin inhibitory activity the literature protocol was followed. In brief α-chymotrypsin (9 units/mL in 50 mM Tris-HCl buffer, pH 7.6; Sigma-Aldrich) was pre-incubated with the compound (3.02×10^−5 g/100 μL) for 30 min at 37° C. and then 100 μL of substrate solution (N-succinyl-phenylalanine-p-nitroanilide; 1 mg/mL) in 50 mM Tris-HCl buffer, pH 7.6) was added to start the enzyme reaction. The absorbance of released p-nitroaniline was continuously monitored at 410 nm until a significant color change had achieved. All reactions were performed in triplicate. Percent inhibitions were calculated using the formula 100-(ODtest well/ODcontrol×100).
# T1 sequence (P07374 whole entry, looked up): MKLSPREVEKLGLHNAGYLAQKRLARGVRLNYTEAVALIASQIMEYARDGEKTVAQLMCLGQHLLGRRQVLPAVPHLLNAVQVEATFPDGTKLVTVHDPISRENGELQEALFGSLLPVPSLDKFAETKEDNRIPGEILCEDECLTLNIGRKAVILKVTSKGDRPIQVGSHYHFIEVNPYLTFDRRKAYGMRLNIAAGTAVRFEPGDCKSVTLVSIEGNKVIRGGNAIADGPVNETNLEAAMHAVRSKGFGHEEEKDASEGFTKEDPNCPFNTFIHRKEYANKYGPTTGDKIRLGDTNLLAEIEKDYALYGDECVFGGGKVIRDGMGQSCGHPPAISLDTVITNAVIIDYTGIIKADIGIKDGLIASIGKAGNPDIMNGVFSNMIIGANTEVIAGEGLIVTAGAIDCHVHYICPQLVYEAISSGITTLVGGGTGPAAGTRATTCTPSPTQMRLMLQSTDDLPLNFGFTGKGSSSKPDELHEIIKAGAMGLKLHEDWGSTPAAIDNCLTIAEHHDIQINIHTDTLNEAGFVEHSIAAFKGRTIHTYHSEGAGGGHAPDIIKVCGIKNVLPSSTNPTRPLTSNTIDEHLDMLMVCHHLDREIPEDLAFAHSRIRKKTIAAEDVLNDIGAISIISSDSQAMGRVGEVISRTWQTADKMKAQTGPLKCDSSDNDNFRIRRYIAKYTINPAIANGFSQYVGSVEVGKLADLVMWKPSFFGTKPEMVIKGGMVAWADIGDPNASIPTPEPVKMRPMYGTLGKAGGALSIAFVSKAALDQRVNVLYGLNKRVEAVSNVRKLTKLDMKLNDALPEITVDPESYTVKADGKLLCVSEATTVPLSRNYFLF
smiles,measurement,setting,value
"O=C(Nc1ccc([N+](=O)[O-])cc1)Nc1ccc([N+](=O)[O-])cc1 [Urchym, N-4-nitrophenyl-N′-4′-nitrophenylurea]",IC50,Jack bean urease,1250 nM
same,IC50,α-chymotrypsin,3.15 ± 0.14 µM
